From patent publication US9587005B2 (priority 2010, dated 2017)
pEC50: −log10 of the molar value. Read-outs that look alike come from different tables or passages of the source. *1 amine or outer side, *2 acyl side, *3 side chain or, on linkers, in order; H or OH if unused. Where a SMILES comes first, the peptide text is derived from it. Where no end group is shown, it is not given here. Side-chain parts run from the residue outwards. [ ]: non-standard residue; d: D form. The star is where a group is joined. PEG8 = NCCOCCOCCOCCOCCOCCOCCOCCOCCC(=O)O; Phe(4-NH2) = Nc1ccc(C[C@H](N)C(=O)O)cc1; γGlu = O=C(O)[C@H](CCC(=O)[*:2])N[*:1]; Palmitoyl = CCCCCCCCCCCCCCCC(=O)*; Aib = CC(C)(N)C(=O)O

Columns and labels:
Assay type in all cases: cell-based
GLP-1 receptor = biological target: T1, GLP-1 receptor (Homo sapiens, UniProt P43220); assay: cAMP induction, firefly luciferase reporter assay in HEK293 cells co-transfected with GLP-1 receptor
T1 construct: expressed in transfected cells; host or cells: HEK293
T1 sequence (P43220 24-463): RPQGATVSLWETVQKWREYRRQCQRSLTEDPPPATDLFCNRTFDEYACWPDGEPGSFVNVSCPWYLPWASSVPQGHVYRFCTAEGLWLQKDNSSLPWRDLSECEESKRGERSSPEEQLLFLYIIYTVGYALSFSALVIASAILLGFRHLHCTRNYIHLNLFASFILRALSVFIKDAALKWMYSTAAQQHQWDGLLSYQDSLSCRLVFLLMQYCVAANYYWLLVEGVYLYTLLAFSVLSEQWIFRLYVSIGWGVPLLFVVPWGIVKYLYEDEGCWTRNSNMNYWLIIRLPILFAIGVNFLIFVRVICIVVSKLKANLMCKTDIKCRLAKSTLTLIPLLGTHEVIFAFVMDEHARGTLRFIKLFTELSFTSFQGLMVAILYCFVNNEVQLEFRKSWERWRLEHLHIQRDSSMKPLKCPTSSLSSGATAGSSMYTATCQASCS
Excerpt: (§1) This example describes an exemplary method of testing the biological activity of the peptides of the present disclosures, which method involves assaying cAMP synthesis.

glucagon receptor = biological target: T2, glucagon receptor (Homo sapiens, UniProt P47871); assay: cAMP induction, firefly luciferase reporter assay in HEK293 cells co-transfected with glucagon receptor
T2 construct: expressed in transfected cells; host or cells: HEK293
T2 sequence (P47871 26-477): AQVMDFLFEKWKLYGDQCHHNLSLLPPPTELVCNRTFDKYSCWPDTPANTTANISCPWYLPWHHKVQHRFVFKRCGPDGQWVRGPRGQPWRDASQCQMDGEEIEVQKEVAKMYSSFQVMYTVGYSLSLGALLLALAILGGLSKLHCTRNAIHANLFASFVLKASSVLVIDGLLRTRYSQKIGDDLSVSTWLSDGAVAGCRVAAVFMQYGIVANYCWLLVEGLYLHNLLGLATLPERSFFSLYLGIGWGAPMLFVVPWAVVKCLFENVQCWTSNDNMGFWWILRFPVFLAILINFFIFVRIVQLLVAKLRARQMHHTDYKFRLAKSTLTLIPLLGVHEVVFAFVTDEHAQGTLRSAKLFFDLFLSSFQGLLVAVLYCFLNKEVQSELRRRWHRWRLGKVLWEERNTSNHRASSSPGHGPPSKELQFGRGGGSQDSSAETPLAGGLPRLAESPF
Excerpt: as §1

GIP receptor = biological target: T3, GIP receptor (Homo sapiens, UniProt P48546); assay: cAMP induction, firefly luciferase reporter assay in HEK293 cells co-transfected with GIP receptor
T3 sequence (P48546 22-466): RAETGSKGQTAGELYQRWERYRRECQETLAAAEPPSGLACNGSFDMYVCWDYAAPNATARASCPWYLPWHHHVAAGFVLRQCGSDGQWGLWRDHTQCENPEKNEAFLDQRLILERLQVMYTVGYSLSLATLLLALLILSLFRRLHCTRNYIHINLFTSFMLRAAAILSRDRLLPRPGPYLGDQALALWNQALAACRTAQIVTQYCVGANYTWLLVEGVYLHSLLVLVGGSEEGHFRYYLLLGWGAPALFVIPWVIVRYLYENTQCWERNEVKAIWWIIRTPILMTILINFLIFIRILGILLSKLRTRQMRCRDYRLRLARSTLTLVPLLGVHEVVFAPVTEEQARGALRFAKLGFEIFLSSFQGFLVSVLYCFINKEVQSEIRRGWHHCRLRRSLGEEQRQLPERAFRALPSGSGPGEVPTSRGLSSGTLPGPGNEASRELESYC

[1] = GLP-1 Receptor EC50, Table 10, Example 16
[2] = Glucagon Receptor EC50, Table 10, Example 16
[3] = Table 10, Example 16, read-out: GIP-1 Receptor EC50
[4] = EC50 (nM) at GLP-1 Receptor, Table 4, Example 9, composite of multiple different activity assays
[5] = EC50 (nM) at Glucagon Receptor, Table 4, Example 9, composite of multiple different activity assays
[6] = EC50 (nM) at GIP Receptor, Table 4, Example 9, composite of multiple different activity assays

Compound | pEC50 (GLP-1 receptor; [1]) | pEC50 (GIP receptor; [3]) | EC50 (GLP-1 receptor; [4]) [nM] | EC50 (glucagon receptor; [5]) [nM] | EC50 (GIP receptor; [6]) [nM] | other results
CCCCCCCCCCCCCCCC(=O)N[C@@H](CCC(=O)NCCCC[C@H](NC(=O)[C@H](CCCCN)NC(=O)[C@H](CO)NC(=O)[C@H](Cc1ccc(O)cc1)NC(=O)[C@H](CC(=O)O)NC(=O)[C@H](CO)NC(=O)[C@@H](NC(=O)[C@H](Cc1ccccc1)NC(=O)[C@@H](NC(=O)CNC(=O)[C@H](CCC(N)=O)NC(=O)C(C)(C)NC(=O)[C@@H](N)Cc1c[nH]cn1)[C@@H](C)O)[C@@H](C)O)C(=O)N[C@@H](CC(C)C)C(=O)N[C@@H](CC(=O)O)C(=O)N[C@@H](CCC(=O)O)C(=O)N[C@@H](CCCNC(=N)N)C(=O)N[C@@H](C)C(=O)N[C@@H](C)C(=O)N[C@@H](CCC(N)=O)C(=O)N[C@@H](CC(=O)O)C(=O)N[C@@H](Cc1ccccc1)C(=O)N[C@H](C(=O)N[C@@H](CCC(N)=O)C(=O)N[C@@H](Cc1c[nH]c2ccccc12)C(=O)N[C@@H](CC(C)C)C(=O)N[C@@H](CC(C)C)C(=O)N[C@@H](CC(=O)O)C(=O)NCC(=O)NCC(=O)N1CCC[C@H]1C(=O)N[C@@H](CO)C(=O)N[C@@H](CO)C(=O)NCC(=O)N[C@@H](C)C(=O)N1CCC[C@H]1C(=O)N1CCC[C@H]1C(=O)N1CCC[C@H]1C(=O)N[C@@H](CO)C(N)=O)C(C)C)C(=O)O [SEQ ID NO: 151] (H-H[Aib]QGTFTSDYSKK([γGlu-Palmitoyl])LDERAAQDFVQWLLDGGPSSGAPPPS-NH2) | 11.40 | 9.51 | – | – | – | pEC50 (glucagon receptor; [2]): 11.10
CCCCCCCCCCCCCCCC(=O)N[C@@H](CCC(=O)NCCCC[C@H](NC(=O)[C@H](CC(=O)O)NC(=O)[C@H](CO)NC(=O)[C@@H](NC(=O)[C@H](Cc1ccccc1)NC(=O)[C@@H](NC(=O)CNC(=O)[C@H](CCC(N)=O)NC(=O)C(C)(C)NC(=O)[C@@H](N)Cc1c[nH]cn1)[C@@H](C)O)[C@@H](C)O)C(=O)N[C@@H](CO)C(=O)N[C@@H](CCCCN)C(=O)N[C@@H](Cc1ccc(O)cc1)C(=O)N[C@@H](CC(C)C)C(=O)N[C@@H](CC(=O)O)C(=O)N[C@@H](CCC(=O)O)C(=O)N[C@@H](CCCNC(=N)N)C(=O)N[C@@H](C)C(=O)N[C@@H](C)C(=O)N[C@@H](CCC(N)=O)C(=O)N[C@@H](CC(=O)O)C(=O)N[C@@H](Cc1ccccc1)C(=O)N[C@H](C(=O)N[C@@H](CCC(N)=O)C(=O)N[C@@H](Cc1c[nH]c2ccccc12)C(=O)N[C@@H](CC(C)C)C(=O)N[C@@H](CC(C)C)C(=O)N[C@@H](CC(=O)O)C(=O)NCC(=O)NCC(=O)N1CCC[C@H]1C(=O)N[C@@H](CO)C(=O)N[C@@H](CO)C(=O)NCC(=O)N[C@@H](C)C(=O)N1CCC[C@H]1C(=O)N1CCC[C@H]1C(=O)N1CCC[C@H]1C(=O)N[C@@H](CO)C(N)=O)C(C)C)C(=O)O [SEQ ID NO: 28] | 11.15 | 11.52 | – | – | – | EC50 (GLP-1 receptor; EC50 (nM) at GLP-1 receptor, Table 15, Example 23): 0.002 nM; pEC50 (GLP-1 receptor; Table 12, Example 19, read-out: EC50 (cAMP, nmole) GLPR): 11.52; EC50 (glucagon receptor; EC50 (nM) at glucagon receptor, Table 15, Example 23): 0.002 nM; EC50 (glucagon receptor; EC50 (nM) at glucagon receptor, Table 16, Example 24): 0.003 nM; EC50 (GIP receptor; EC50 (nM) at GIP receptor, Table 15, Example 23): 0.002 nM; pEC50 (GIP receptor; GIP (0.01), Table 8, Example 14, activity at the GIP receptor): 11.52; pEC50 (GIP receptor; Table 12, Example 19, read-out: EC50 (cAMP, nmole) GIPR): 11.15
CCCCCCCCCCCCCCCC(=O)N[C@@H](CCC(=O)NCCCC[C@H](NC(=O)[C@H](CC(=O)O)NC(=O)[C@H](CO)NC(=O)[C@@H](NC(=O)[C@H](Cc1ccccc1)NC(=O)[C@@H](NC(=O)CNC(=O)[C@H](CCC(=O)O)NC(=O)C(C)(C)NC(=O)[C@@H](N)Cc1c[nH]cn1)[C@@H](C)O)[C@@H](C)O)C(=O)N[C@@H](CO)C(=O)N[C@@H](CCCCN)C(=O)N[C@@H](Cc1ccc(O)cc1)C(=O)N[C@@H](CC(C)C)C(=O)N[C@@H](CC(=O)O)C(=O)N[C@@H](CCC(=O)O)C(=O)N[C@@H](CCCNC(=N)N)C(=O)N[C@@H](C)C(=O)N[C@@H](C)C(=O)N[C@@H](CCC(N)=O)C(=O)N[C@@H](CC(=O)O)C(=O)N[C@@H](Cc1ccccc1)C(=O)N[C@H](C(=O)N[C@@H](CCC(N)=O)C(=O)N[C@@H](Cc1c[nH]c2ccccc12)C(=O)N[C@@H](CC(C)C)C(=O)N[C@@H](CC(C)C)C(=O)N[C@@H](CC(=O)O)C(=O)NCC(=O)NCC(=O)N1CCC[C@H]1C(=O)N[C@@H](CO)C(=O)N[C@@H](CO)C(=O)NCC(=O)N[C@@H](C)C(=O)N1CCC[C@H]1C(=O)N1CCC[C@H]1C(=O)N1CCC[C@H]1C(=O)N[C@@H](CO)C(N)=O)C(C)C)C(=O)O [compound 39] (H-H[Aib]EGTFTSDK([γGlu-Palmitoyl])SKYLDERAAQDFVQWLLDGGPSSGAPPPS-NH2; N-terminus assumed) | – | – | 0.008 | 1.28 | 0.026 | –
CCCCCCCCCCCCCCCC(=O)N[C@@H](CCC(=O)NCCCC[C@H](NC(=O)[C@H](CC(=O)O)NC(=O)[C@H](CO)NC(=O)[C@@H](NC(=O)[C@H](Cc1ccccc1)NC(=O)[C@@H](NC(=O)CNC(=O)[C@H](CCC(N)=O)NC(=O)C(C)(C)NC(=O)[C@@H](N)Cc1c[nH]cn1)[C@@H](C)O)[C@@H](C)O)C(=O)N[C@@H](CO)C(=O)N[C@@H](CCCCN)C(=O)N[C@@H](Cc1ccc(O)cc1)C(=O)N[C@@H](CC(C)C)C(=O)N[C@@H](CC(=O)O)C(=O)N[C@@H](CCC(=O)O)C(=O)N[C@@H](CCCNC(=N)N)C(=O)N[C@@H](CCCNC(=N)N)C(=O)N[C@@H](C)C(=O)NC(C)(C)C(=O)N[C@@H](CCC(=O)O)C(=O)N[C@@H](Cc1ccccc1)C(=O)N[C@H](C(=O)N[C@@H](CCC(N)=O)C(=O)N[C@@H](Cc1c[nH]c2ccccc12)C(=O)N[C@@H](CC(C)C)C(=O)N[C@@H](CC(C)C)C(=O)N[C@@H](CC(=O)O)C(=O)N[C@H](C(N)=O)[C@@H](C)O)C(C)C)C(=O)O [compound 31] (H-H[Aib]QGTFTSDK([γGlu-Palmitoyl])SKYLDERRA[Aib]EFVQWLLDT-NH2; N-terminus assumed) | – | – | 0.0044 | 0.008 | 0.008 | EC50 (glucagon receptor; EC50 (nM) at Glucagon Receptor, Table 7, Example 13): 0.008 nM; EC50 (GIP receptor; EC50 (nM) at GIP Receptor, Table 7, Example 13): 0.008 nM
H[Aib]QGTFTSDYSKYLDERAAQDFVQWLLDGGPSSGAPPPSK([PEG8-γGlu-Palmitoyl])G-NH2 [SEQ ID NO: 159] | – | – | – | – | – | pEC50 (GLP-1 receptor; GLP-1 Receptor EC50, Table 11, Example 18): 11.30; pEC50 (glucagon receptor; Glucagon Receptor EC50, Table 11, Example 18): 11.22; pEC50 (GIP receptor; GIP Receptor EC50, Table 11, Example 18): 11.70
CCCCCCCCCCCCCCCC(=O)N[C@@H](CCC(=O)NCCCC[C@H](NC(=O)[C@H](CC(=O)O)NC(=O)[C@H](CO)NC(=O)[C@@H](NC(=O)[C@H](Cc1ccccc1)NC(=O)[C@@H](NC(=O)CNC(=O)[C@H](CCC(N)=O)NC(=O)C(C)(C)NC(=O)[C@@H](N)Cc1c[nH]cn1)[C@@H](C)O)[C@@H](C)O)C(=O)N[C@@H](CO)C(=O)N[C@@H](CCCCN)C(=O)N[C@@H](Cc1ccc(O)cc1)C(=O)N[C@@H](CC(C)C)C(=O)N[C@@H](CC(=O)O)C(=O)N[C@@H](CCC(=O)O)C(=O)N[C@@H](CCCNC(=N)N)C(=O)N[C@@H](CCCNC(=N)N)C(=O)N[C@@H](C)C(=O)NC(C)(C)C(=O)N[C@@H](CCC(=O)O)C(=O)N[C@@H](Cc1ccccc1)C(=O)N[C@H](C(=O)N[C@@H](CCC(N)=O)C(=O)N[C@@H](Cc1c[nH]c2ccccc12)C(=O)N[C@@H](CC(C)C)C(=O)N[C@@H](CC(C)C)C(=O)N[C@@H](CC(=O)O)C(=O)NCC(=O)NCC(=O)N1CCC[C@H]1C(=O)N[C@@H](CO)C(=O)N[C@@H](CO)C(=O)NCC(=O)N[C@@H](C)C(=O)N1CCC[C@H]1C(=O)N1CCC[C@H]1C(=O)N1CCC[C@H]1C(=O)N[C@@H](CO)C(N)=O)C(C)C)C(=O)O [compound 37] (H-H[Aib]QGTFTSDK([γGlu-Palmitoyl])SKYLDERRA[Aib]EFVQWLLDGGPSSGAPPPS-NH2; N-terminus assumed) | – | – | 0.006 | 0.004 | 0.002 | –
CCCCCCCCCCCCCCCC(=O)N[C@@H](CCC(=O)Nc1ccc(C[C@H](NC(=O)[C@@H](NC(=O)CNC(=O)[C@H](CCC(N)=O)NC(=O)C(C)(C)NC(=O)[C@@H](N)Cc2c[nH]cn2)[C@@H](C)O)C(=O)N[C@H](C(=O)N[C@@H](CO)C(=O)N[C@@H](CC(=O)O)C(=O)N[C@@H](Cc2ccc(O)cc2)C(=O)N[C@@H](CO)C(=O)N[C@@H](CCCCN)C(=O)N[C@@H](Cc2ccc(O)cc2)C(=O)N[C@@H](CC(C)C)C(=O)N[C@@H](CC(=O)O)C(=O)N[C@@H](CCC(=O)O)C(=O)N[C@@H](CCCNC(=N)N)C(=O)N[C@@H](C)C(=O)N[C@@H](C)C(=O)N[C@@H](CCC(N)=O)C(=O)N[C@@H](CC(=O)O)C(=O)N[C@@H](Cc2ccccc2)C(=O)N[C@H](C(=O)N[C@@H](CCC(N)=O)C(=O)N[C@@H](Cc2c[nH]c3ccccc23)C(=O)N[C@@H](CC(C)C)C(=O)N[C@@H](CC(C)C)C(=O)N[C@@H](CC(=O)O)C(=O)NCC(=O)NCC(=O)N2CCC[C@H]2C(=O)N[C@@H](CO)C(=O)N[C@@H](CO)C(=O)NCC(=O)N[C@@H](C)C(=O)N2CCC[C@H]2C(=O)N2CCC[C@H]2C(=O)N2CCC[C@H]2C(=O)N[C@@H](CO)C(N)=O)C(C)C)[C@@H](C)O)cc1)C(=O)O [SEQ ID NO: 147] (H-H[Aib]QGT[Phe(4-NH2)]([γGlu-Palmitoyl])TSDYSKYLDERAAQDFVQWLLDGGPSSGAPPPS-NH2; N-terminus assumed) | 11.40 | 8.50 | – | – | – | pEC50 (glucagon receptor; [2]): 9.61
